Data on 18 compounds can be found in patent US12269793B2, “Affinity illudofulvene conjugates” (AF Chemicals, LLC, priority 2019, dated 2025).

The term IC50 denotes the midpoint of a concentration-inhibition curve.

Experiment in all cases: cells
The subject of assay [1] is MV522 Target Cell Line (lung-derived adenocarcinoma). The note with it: MV522, 48 h, read-out: Mean IC50 value.
For assay [2], the system named is 8392B Nontarget Cell Line (hematopoietic). To be noted: 48 h, read-out: Mean IC50 value.
The subject of assay [3] is MV522 Target Cell Line (lung-derived adenocarcinoma). The note with it: MV522, 2 h, read-out: Mean IC50 value.
Assay [4] deals with 8392B Nontarget Cell Line (hematopoietic). The note with it: 2 h, read-out: Mean IC50 value, 8392B Nontarget Cell Line, 2 hr exposure, ± SD, N = 3 unless otherwise indicated.

The structures appear in SMILES notation. Like-named read-outs stand apart in the source and are kept apart here. Where a SMILES comes first, the peptide text is derived from it. [ ]: non-standard residue; d: D form. The star is where a group is joined. X4 = CC1=C(C*)C2=C(C)C3(CC3)[C@@](C)(O)C(=O)C2=C1

Turning to `CC(=O)N[C@@H](CSCC1=C(C)C=C2C(=O)[C@](C)(O)C3(CC3)C(C)=C21)C(=O)N[C@@H](Cc1ccccc1)C(=O)NCC(=O)N[C@H](C=O)CC(C)C` [Analog 083] (Ac-C(X4)FGL-aldehyde), the IC50 in assay [1] was 37.2 ± 2.9 µM; in assay [2], more than 42 µM.

Take `CC(=O)OCCCC1=C(C)C=C2C(=O)[C@](C)(O)C3(CC3)C(C)=C21` [Analog 094]: the IC50 in assay [3] is 0.8 ± 0.1 µM; in assay [4], 9 ± 1.7 µM; in assay [2] it was 0.11 ± 0.01 µM.

`CC1=C(C=O)C2=C(C)C3(CC3)[C@@](C)(O)C(=O)C2=C1` [Analog 011]: the IC50 is 4.9 ± 0.9 µM in assay [3], more than 100 µM in assay [4] and 40.4 ± 6.7 µM in assay [2].

With `CC1=C(CCCO)C2=C(C)C3(CC3)[C@@](C)(O)C(=O)C2=C1` [Analog 009], the IC50 in assay [4] worked out at 47.1 ± 11 µM; in assay [2], 43.2 ± 2.3 µM.

Take `CCOCC1=C(C)C=C2C(=O)[C@](C)(O)C3(CC3)C(C)=C21` [Analog 016]: the IC50 was 0.49 ± 0.13 µM in assay [3], more than 100 µM in assay [4] and 0.87 ± 0.06 µM in assay [2].

For `CC1=C(CSc2nccn2C)C2=C(C)C3(CC3)[C@@](C)(O)C(=O)C2=C1` [Analog 096], the IC50 in assay [1] was 6.2 ± 0.6 µM; in assay [4], more than 88 µM; in assay [2], more than 3 µM.

For the compound `CC1=CC2=C(C)C3(CC3)[C@@](C)(O)C(=O)C2=C1` [Analog 001], the half-maximal inhibitory concentration (IC50) is 2.2 ± 0.1 µM in assay [3], 0.35 ± 0.02 µM in assay [1] and 0.83 ± 0.1 µM in assay [2].

As for `CC1=C(CCC(=O)OC2CCC3(C)C(CCC4C3CC[C@]3(C)C(=O)CCC43)C2)C2=C(C)C3(CC3)[C@@](C)(O)C(=O)C2=C1` (some centres unmarked) [Analog 112], the concentration for half-maximal inhibition (IC50) in assay [4] came to 14.9 ± 0.1 µM; in assay [2], 5.2 ± 0.3 µM.

Consider `CC1=C(CCC=NNc2ccc([N+](=O)[O-])cc2[N+](=O)[O-])C2=C(C)C3(CC3)[C@@](C)(O)C(=O)C2=C1` [Analog 125], for which the IC50 was determined as 3.7 ± 0.6 µM in assay [3], 15.5 ± 1.4 µM in assay [4] and 0.6 ± 0.1 µM in assay [2].

With `CC1=C(CCC2CO2)C2=C(C)C3(CC3)[C@@](C)(O)C(=O)C2=C1` (some centres unmarked) [Analog 114], the half-inhibitory concentration (IC50) was 1.5 ± 0.1 µM in assay [3], 0.26 ± 0.07 µM in assay [1], 25.1 ± 1 µM in assay [4] and 0.7 ± 0.1 µM in assay [2].

Take `CC1=C(CCC=O)C2=C(C)C3(CC3)[C@@](C)(O)C(=O)C2=C1` [Analog 010]: the figures for the IC50 in assay [4] and in assay [2] were 29.4 ± 1.6 µM and 14.5 ± 1.7 µM, respectively.

Consider `CC(=O)N[C@@H](CSCC1=C(C)C=C2C(=O)[C@](C)(O)C3(CC3)C(C)=C21)C(=O)N[C@@H](CC(C)C)C(=O)NCC(=O)N[C@@H](C=O)Cc1ccccc1` [Analog 084] (Ac-C(X4)LG[dF]-aldehyde), for which the values for the IC50 in assay [1] and in assay [2] were 28.2 ± 1.4 µM and more than 42 µM, respectively.

For the compound `CC1=C(CCC(O)CO)C2=C(C)C3(CC3)[C@@](C)(O)C(=O)C2=C1` (some centres unmarked) [Analog 119], the results for the IC50 in assay [4] and in assay [2] were more than 33 µM and more than 10 µM, respectively.

Take `CC1=C([N+](=O)[O-])C2=C(C)C3(CC3)[C@@](C)(O)C(=O)C2=C1` [Analog 012]: the half-inhibitory concentration (IC50) in assay [3] came to 5.15 ± 1.35 µM; in assay [1], 0.32 ± 0.09 µM; in assay [4], 42.2 ± 5 µM; in assay [2], 18.8 ± 2.8 µM.

For `CC1=C(CCC=NN=CCCC2=C(C)C=C3C(=O)[C@@](C)(O)C4(CC4)C(C)=C32)C2=C(C)C3(CC3)[C@@](C)(O)C(=O)C2=C1` [Analog 120], the IC50 in assay [3] turned out to be 2.8 ± 0.9 µM; in assay [1], 0.6 ± 0.1 µM; in assay [4], 19.1 ± 4.6 µM; in assay [2], 0.51 ± 0.11 µM.

On to `C=CCCC1=C(C)C=C2C(=O)[C@](C)(O)C3(CC3)C(C)=C21` [Analog 113], for which the IC50 in assay [3] was 85 ± 0.7 µM; in assay [1] it was 14.1 ± 3 µM; in assay [4] it was more than 93 µM; in assay [2] it was 7.8 ± 1 µM.

With `CC(=O)O[C@@]1(C)C(=O)C2=CC(CO)=CC2=C(C)C12CC2` [Analog 090], the IC50 was determined as 2.5 ± 0.4 µM in assay [3], 2.9 ± 0.4 µM in assay [1], 1.6 ± 0.2 µM in assay [4] and 3.8 ± 0.3 µM in assay [2].

Take `CC(=O)OCOCC1=C(C)C=C2C(=O)[C@](C)(O)C3(CC3)C(C)=C21` [Analog 008]: the IC50 in assay [3] came to 0.87 ± 0.09 µM; in assay [1], 0.63 ± 0.08 µM; in assay [2], 15.1 ± 2.2 µM.
